Test results: patent US11091478B2 (Fochon Pharmaceuticals, Ltd., priority 2017, dated 2021)

How the values were obtained:
DOHH2 cells = test: Cell proliferation assay (MTS), DOHH2 cells, 120 h; format: cell-based; settings: Homo sapiens, DOHH-2, 120 h
Summary of the method: (§1)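 RS4;11 and DOHH2 cells at 5000 cells/well in RPMI-1640 with 10% FBS were treated with compound at 1.5–10000 nM final, nine points, at 37 °C, 5% CO2. Exposure was 72 h for RS4;11 and 120 h for DOHH2. MTS was added for 2 h, absorbance read at 490/650 nm, and IC50 calculated.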

RS4;11 cells = test: Cell proliferation assay (MTS), RS4;11 cells, 72 h; format: cell-based; settings: Homo sapiens, RS4-11, 72 h
Summary of the method: as §1

IC50 (RS4;11 cells) [nM] | SMILES | IC50 (DOHH2 cells) [nM]
43 | CC1(C)CCC(CN2CCN(c3ccc(C(=O)NS(=O)(=O)c4cc5c(c([N+](=O)[O-])c4)N[C@H](Cc4ccc(F)cc4)CO5)c(Oc4cnc5[nH]ccc5c4)c3)CC2)=C(c2ccc(Cl)cc2)C1 [Example 2-158, (R)-2-((1H-pyrrolo[2,3-b]pyridin-5-yl)oxy)-4-(4-((4′-chloro-5,5-dimethyl-3,4,5,6-tetra-hydro-[1,1′-biphenyl]-2-yl)methyl)piperazin-1-yl)-N-((3-(4-fluorobenzyl)-5-nitro-3,4-dihydro-2H-benzo[b][1,4]oxazin-7-yl)sulfo-nyl)benzamide] | 135
29 | CC1(C)CCC(CN2CCN(c3ccc(C(=O)NS(=O)(=O)c4cc5c(c([N+](=O)[O-])c4)N[C@H](Cc4ccccc4Cl)CO5)c(Oc4cnc5[nH]ccc5c4)c3)CC2)=C(c2ccc(Cl)cc2)C1 [Example 2-159, (R)-2-((1H-pyrrolo[2,3-b]pyridin-5-yl)oxy)-4-(4-((4′-chloro-5,5-dimethyl-3,4,5,6-tetra-hydro-[1,1′-biphenyl]-2-yl)methyl)piperazin-1-yl)-N-((3-(2-chlorobenzyl)-5-nitro-3,4-dihydro-2H-benzo[b][1,4]oxazin-7-yl)sulfo-nyl)benzamide] | 47
95 | CC1(C)CCC(CN2CCN(c3ccc(C(=O)NS(=O)(=O)c4cc5c(c([N+](=O)[O-])c4)N[C@H](Cc4ccc(Cl)cc4)CO5)c(Oc4cnc5[nH]ccc5c4)c3)CC2)=C(c2ccc(Cl)cc2)C1 [Example 2-160, (R)-2-((1H-pyrrolo[2,3-b]pyridin-5-yl)oxy)-4-(4-((4′-chloro-5,5-dimethyl-3,4,5,6-tetra-hydro-[1,1′-biphenyl]-2-yl)methyl)piperazin-yl)-N-((3-(4-chlorobenzyl)-5-nitro-3,4-dihydro-2H-benzo[b][1,4]oxazin-7-yl)sulfo-nyl)benzamide] | 168
17 | COc1ccc(CC2COc3cc(S(=O)(=O)NC(=O)c4ccc(N5CCN(CC6=C(c7ccc(Cl)cc7)CC(C)(C)CC6)CC5)cc4Oc4cnc5[nH]ccc5c4)cc([N+](=O)[O-])c3N2)nc1 (centres unmarked) [Example 2-161, 2-((1H-pyrrolo[2,3-b]pyridin-5-yl)oxy)-4-(4-((4′-chloro-5,5-dimethyl-3,4,5,6-tetrahydro-[1,1′-biphenyl]-2-yl)methyl)piperazin-1-yl)-N-((3-((5-methoxypyridin-2-yl)methyl)-5-nitro-3,4-dihydro-2H-benzo[b][1,4]oxa-zin-7-yl)sulfonyl)benzamide] | 20
43 | COc1ccc(C[C@H]2COc3cc(S(=O)(=O)NC(=O)c4ccc(N5CCN(CC6=C(c7ccc(Cl)cc7)CC(C)(C)CC6)CC5)cc4Oc4cnc5[nH]ccc5c4)cc([N+](=O)[O-])c3N2)nc1 [Example 2-162, (S)-2-((1H-pyrrolo[2,3-b]pyridin-5-yl)oxy)-4-(4-((4′-chloro-5,5-dimethyl-3,4,5,6-tetra-hydro-[1,1′-biphenyl]-2-yl)methyl)piperazin-1-yl)-N-((3-((5-methoxypyridin-2-yl)meth-yl)-5-nitro-3,4-dihydro-2H-benzo[b][1,4]oxain-7-yl)sulfonyl)benzamide] | 325
29 | CC1(C)CCC(CN2CCN(c3ccc(C(=O)NS(=O)(=O)c4cc5c(c([N+](=O)[O-])c4)N[C@@H](Cc4cccnc4)CO5)c(Oc4cnc5[nH]ccc5c4)c3)CC2)=C(c2ccc(Cl)cc2)C1 [Example 2-163, (S)-2-((1H-pyrrolo[2,3-b]pyridin-5-yl)oxy)-4-(4-((4′-chloro-5,5-dimethyl-3,4,5,6-tetra-hydro-[1,1′-biphenyl]-2-yl)methyl)piperazin-1-yl)-N-((5-nitro-3-(pyridin-3-ylmethyl)-3,4-dihydro-2H-benzo[b][1,4]oxazin-7-yl)sulfonyl)benzamide] | 53
34 | CC1(C)CCC(CN2CCN(c3ccc(C(=O)NS(=O)(=O)c4cc5c(c([N+](=O)[O-])c4)N[C@@H](Cc4ccncc4)CO5)c(Oc4cnc5[nH]ccc5c4)c3)CC2)=C(c2ccc(Cl)cc2)C1 [Example 2-164] | 16
82 | CC1(C)CCC(CN2CCN(c3ccc(C(=O)NS(=O)(=O)c4cc5c(c([N+](=O)[O-])c4)N[C@H](c4ccc(F)cc4)CO5)c(Oc4cnc5[nH]ccc5c4)c3)CC2)=C(c2ccc(Cl)cc2)C1 [Example 2-166, (R)-2-((1H-pyrrolo[2,3-b]pyridin-5-yl)oxy)-4-(4-((4′-chloro-5,5-dimethyl-3,4,5,6-tetra-hydro-[1,1′-biphenyl]-2-yl)methyl)piperazin-1-yl)-N-((3-(4-fluorophenyl)-5-nitro-3,4-dihydro-2H-benzo[b][1,4]oxazin-7-yl)sulfo-nyl)benzamide] | 300

The next lines start with the molecule.

SMILES | IC50 (RS4;11 cells) [nM] | IC50 (DOHH2 cells) [nM]
CC1(C)CCC(CN2CCN(c3ccc(C(=O)NS(=O)(=O)c4cc5c(c([N+](=O)[O-])c4)N[C@H](CN4CCC(N=S(C)(C)=O)CC4)CO5)c(Oc4cnc5[nH]ccc5c4)c3)CC2)=C(c2ccc(Cl)cc2)C1 [Example 2-150] | 45 | 67
CC1(C)CCC(CN2CCN(c3ccc(C(=O)NS(=O)(=O)c4cc5c(c([N+](=O)[O-])c4)N[C@H](CN4CCC(NS(C)(=O)=O)CC4)CO5)c(Oc4cnc5[nH]ccc5c4)c3)CC2)=C(c2ccc(Cl)cc2)C1 [Example 2-151, (R)-2-((1H-pyrrolo[2,3-b]pyridin-5-yl)oxy)-4-(4-((4′-chloro-5,5-dimethyl-3,4,5,6-tetra-hydro-[1,1′-biphenyl]-2-yl)methyl)piperazin-1-yl)-N-((3-((4-(methylsulfonamido)pi-peridin-1-yl)methyl)-5-nitro-3,4-dihydro-2H-benzo[b][1,4]oxazin-7-yl)sulfonyl)benzamide] | 1 | 2
COC(=O)NC1CCN(C[C@@H]2COc3cc(S(=O)(=O)NC(=O)c4ccc(N5CCN(CC6=C(c7ccc(Cl)cc7)CC(C)(C)CC6)CC5)cc4Oc4cnc5[nH]ccc5c4)cc([N+](=O)[O-])c3N2)CC1 [Example 2-152, methyl (R)-(1-((7-(N-(2-((1H-pyrrolo[2,3-b]pyridin-5-yl)oxy)-4-(4-((4′-chloro-5,5-dimethyl-3,4,5,6-tetrahydro-[1,1′-biphenyl]-2-yl)meth-yl)piperazin-1-yl)benzoyl)sulfamoyl)-5-nitro-3,4-dihydro-2H-benzo[b][1,4]oxazin-3-yl)methyl)piperidin-4-yl)carbamate] | 1 | 1
CC1(C)CCC(CN2CCN(c3ccc(C(=O)NS(=O)(=O)c4cc5c(c([N+](=O)[O-])c4)N[C@@H](CCN4CCS(=O)(=O)CC4)CO5)c(Oc4cnc5[nH]ccc5c4)c3)CC2)=C(c2ccc(Cl)cc2)C1 [Example 2-153, (S)-2-((1H-pyrrolo[2,3-b]pyridin-5-yl)oxy)-4-(4-((4′-chloro-5,5-dimethyl-3,4,5,6-tetra-hydro-[1,1′-biphenyl]-2-yl)methyl)piperazin-1-yl)-N-((3-(2-(1,1-dioxidothiomorpholino)ethyl)-5-nitro-3,4-dihydro-2H-benzo[b] [1,4]oxazin-7-yl)sulfonyl)benzamide] | 1 | 8
CC1(C)CCC(CN2CCN(c3ccc(C(=O)NS(=O)(=O)c4cc5c(c([N+](=O)[O-])c4)N[C@H](CN4CCP(C)(=O)CC4)CO5)c(Oc4cnc5[nH]ccc5c4)c3)CC2)=C(c2ccc(Cl)cc2)C1 [Example 2-154, (R)-2-((1H-pyrrolo[2,3-b]pyridin-5-yl)oxy)-4-(4-((4′-chloro-5,5-dimethyl-3,4,5,6-tetra-hydro-[1,1′-biphenyl]-2-yl)methyl)piperazin-1-yl)-N-((3-((4-methyl-4-oxido-1,4-aza-phosphinan-1-yl)methyl)-5-nitro-3,4-dihydro-2H-benzo[b][1,4]oxazin-7-yl)sulfonyl) benzamide] | 24 | 201
CC1(C)CCC(CN2CCN(c3ccc(C(=O)NS(=O)(=O)c4cc5c(c([N+](=O)[O-])c4)N[C@H](CCN4CCP(C)(=O)CC4)CO5)c(Oc4cnc5[nH]ccc5c4)c3)CC2)=C(c2ccc(Cl)cc2)C1 [Example 2-155, (R)-2-((1H-pyrrolo[2,3-b]pyridin-5-yl)oxy)-4-(4-((4′-chloro-5,5-dimethyl-3,4,5,6-tetra-hydro-[1,1′-biphenyl]-2-yl)methyl)piperazin-1-yl)-N-((3-(2-(4-methyl-4-oxido-1,4-aza-phosphinan-1-yl)ethyl)-5-nitro-3,4-dihydro-2H-benzo[b][1,4]oxazin-7-yl)sulfonyl) benzamide] | 66 | 459
CC1(C)CCC(CN2CCN(c3ccc(C(=O)NS(=O)(=O)c4cc5c(c([N+](=O)[O-])c4)N[C@H](Cc4ccccc4)CO5)c(Oc4cnc5[nH]ccc5c4)c3)CC2)=C(c2ccc(Cl)cc2)C1 [Example 2-156, (R)-2-((1H-pyrrolo[2,3-b]pyridin-5-yl)oxy)-N-((3-benzyl-5-nitro-3,4-dihdyro-2H-benzo[b][1,4]oxazin-7-yl)sulfonyl)-4-(4-((4′-chloro-5,5-dimethyl-3,4,5,6-tetrahydro-[1,1′-biphenyl]-2-yl)methyl)piperazin-1-yl)benza-mide] | 19 | 6
CC1(C)CCC(CN2CCN(c3ccc(C(=O)NS(=O)(=O)c4cc5c(c([N+](=O)[O-])c4)N[C@H](Cc4ccccc4F)CO5)c(Oc4cnc5[nH]ccc5c4)c3)CC2)=C(c2ccc(Cl)cc2)C1 [Example 2-157, (R)-2-((1H-pyrrolo[2,3-b]pyridin-5-yl)oxy)-4-(4-((4′-chloro-5,5-dimethyl-3,4,5,6-tetra-hydro-[1,1′-biphenyl]-2-yl)methyl)piperazin-1-yl)-N-((3-(2-fluorobenzyl)-5-nitro-3,4-dihydro-2H-benzo[b][1,4]oxazin-7-yl)sulfo-nyl)benzamide] | 10 | 39
